The record followed here is paper PMC5858925, “Mechanochemical coupling and bi-phasic force-velocity dependence in the ultra-fast ring ATPase SpoIIIE” (eLife, 2018).

The assay concerns the target T1, SpoIIIE (Bacillus subtilis, UniProt P21458).
T1 construct: recombinant SpoIIIE, homo-hexamer, immobilized on polystyrene beads
The experiment in a line: optical tweezers, pause-free DNA translocation velocity vs [ATP], Michaelis-Menten fit. In kind it is biochemical. The following applies: 0.25-5 mM ATP; 5 pN opposing force; dsDNA track; 5 µM ADP and 5 µM Pi.

T1 sequence (P21458 whole entry): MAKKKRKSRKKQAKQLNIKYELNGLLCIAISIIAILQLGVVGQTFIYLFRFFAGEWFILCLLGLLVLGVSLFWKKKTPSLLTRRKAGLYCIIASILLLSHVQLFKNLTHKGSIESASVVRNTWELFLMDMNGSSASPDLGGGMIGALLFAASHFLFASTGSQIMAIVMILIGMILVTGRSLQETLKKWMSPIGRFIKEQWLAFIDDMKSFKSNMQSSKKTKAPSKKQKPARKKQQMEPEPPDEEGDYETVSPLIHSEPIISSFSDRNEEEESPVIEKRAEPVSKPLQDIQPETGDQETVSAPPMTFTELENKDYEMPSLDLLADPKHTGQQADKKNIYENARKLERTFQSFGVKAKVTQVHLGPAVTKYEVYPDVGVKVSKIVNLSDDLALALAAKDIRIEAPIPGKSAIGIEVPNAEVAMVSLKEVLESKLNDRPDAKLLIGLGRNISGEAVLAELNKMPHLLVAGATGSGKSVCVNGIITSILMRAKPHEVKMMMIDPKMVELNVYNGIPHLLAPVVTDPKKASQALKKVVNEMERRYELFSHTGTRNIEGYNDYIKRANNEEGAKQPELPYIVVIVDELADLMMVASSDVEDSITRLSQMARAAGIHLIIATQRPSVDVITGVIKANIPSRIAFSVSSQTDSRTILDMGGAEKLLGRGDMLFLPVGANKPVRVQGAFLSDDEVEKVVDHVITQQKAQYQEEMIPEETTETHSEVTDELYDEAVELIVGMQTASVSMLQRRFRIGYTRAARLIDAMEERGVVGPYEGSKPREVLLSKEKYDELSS

Regarding `Nc1ncnc2c1ncn2[C@@H]1O[C@H](COP(=O)(O)OP(=O)(O)OP(=O)(O)O)[C@@H](O)[C@H]1O` [ATP], the KM entry was “Although both Vmax and KM decrease with force, Vmax/KM is largely force-independent”.
